Data taken from patent US7135472B2, “3-Heterocyclic benzylamide derivatives as potassium channel openers” (Bristol-Myers Squibb Company, priority 2002, dated 2006).

Legend:
mKCNQ2 channels = target: T1, mKCNQ2 channels (Mus musculus, UniProt Q9Z351); test: KCNQ whole-cell patch-clamp recordings, HEK 293 stable cell line expressing mKCNQ2 channels; format: cell-based; details: mKCNQ2 currents, HEK 293, whole-cell patch clamp; for Imax (%): Hill fit maximum current; for EC50: at −40 mV
T1 construct: expressed in transfected cells
Protocol: Whole-cell patch-clamp recordings were made from an HEK 293 stable cell line expressing mKCNQ2 channels, maintained in culture for 1–2 days. Patch pipettes had initial resistances of 2.5–4 MΩ. Currents were recorded with an EPC-9 amplifier (HEKA, Lambrecht, Germany) controlled with software (Pulse, HEKA) run on a standard lab PC. Series resistance compensation was used during current recording, and set at 80%. The series resistance (R) and cell capacitance (C) were determined electronically by subtracting the capacitive currents at the onset and offset of a 5 mV voltage step. The cancellation of whole-cell capacitive transients was virtually complete in all cells. Analog current signals were low-pass filtered at 2.9 kHz using a four-pole Bessel filter −3 dB) and stored on a local network server computer at a sampling rate of […]. All recordings were performed at room temperature (20–22° C.). The pipette solution contained (mM): KCl, 150; CaCl2, 2.5; EGTA, 5; MgCl2, 1; HEPES, 10; pH to 7.3 with KOH, and Osmolality of 290–300 mOsm. The extracellular solution contained (mM): NaCl, 140; KCl, 2.5; CaCl2, 2.5; MgCl2, 1; glucose, 10; HEPES, 10; pH to 7.3 with NaOH, and Osmolality of 305–310 mOsm
Concentration response data were generated by measuring the difference in the steady-state amplitude of current in the presence of compound at the end of a 600 ms voltage-clamp step from a holding potential of −80 mV. The concentration-response data were fitted with Hill-type equations: I=Imax/(1+EC50/[A]^nH), where I is the steady-state current at a given concentration of agonist [A]; and Imax, EC50 and nH are parameters estimated from the curve fit. In some cases the concentration-response data were fitted with equations consisting of the sum of two Hill-type components. Current-voltage (I/V) relationships for agonist-evoked currents were obtained by performing 600 ms voltage steps (−110 mV to +40 mV) in the absence and presence of agonist.

[1] = test system: peripheral mononeuropathy nerve injury-induced tactile allodynia; test: Chung model of neuropathic pain (Chung surgery and von Frey test); format: in vivo, male Sprague Dawley rats; details: i.v., rat, von Frey thresholds over 90 min post-drug, % MPE (Drug AUC) − % MPE (Vehicle AUC)
Protocol: To test agents for activity against peripheral mononeuropathy nerve injury-induced tactile allodynia, male Sprague Dawley rats (wt. 120–160 g) were surgically prepared with unilateral tight ligation of spinal nerves L5 and L6 following the method of Kim and Chung (Kim S. H., Chung J. M. (1992) Pain, September; 50(3):355–63). After 3–4 weeks recovery, paw withdrawal to light touch was assessed as described by Chaplan et al. (Chaplan S. R., et al., (1994) J. Neurosci Methods, July; 53(1):55–63). In brief, rats are placed in a plastic cage with a wire mesh bottom and allowed to acclimate for 15–30 minutes, until cage exploration and grooming stops. […] After acclimation, baseline von Frey thresholds were assessed for the injured hindpaw at −15 min. […] Following drug administration, von Frey thresholds are measured at 15, 30, 60 and 90 min. Data were analyzed by a 2-way repeated measures analysis of variance followed by Dunnett's test (p<0.05). […]
Reversal of neuropathic pain behavior may be expressed as a percentage (0–100%) of the maximum possible effect, over and above the vehicle effects. […]
For example, a compound which immediately reversed neuropathic pain behavior to normal levels, such that animals only responded to the highest von Frey filament (15 g), and maintained normal levels through out the post-drug testing period (90 min) would be calculated as Δ%MPE=100%.

Compound | Imax (%) (mKCNQ2 channels) | EC50 (mKCNQ2 channels) [µM] | AUC (Δ % MPE) ([1]; 3 mg/kg) | AUC (Δ % MPE) ([1]; 100 mg/kg)
C[C@H](NC(=O)/C=C/c1ccccc1F)c1cccc(-n2cccn2)c1 [Example 4, (S)-3-(2-Fluoro-phenyl)-N-[1-(3-pyrazol-1-yl-phenyl)-ethyl]-acrylamide] | 1158 | 0.123 | 24 (3 mg/kg, i.v.) Δ % MPE | –
C[C@H](NC(=O)CCCc1ccccc1)c1cccc(-c2cccnc2)c1 [Example 17, (S)-4-Phenyl-N-[1-(3-pyridin-3-yl-phenyl)-ethyl]-butyramide] | 172 | 0.0007 | – | –
C[C@H](NC(=O)C=Cc1ccccc1)c1cccc(-n2cccn2)c1 [Example 31, (S)-3-Phenyl-N-[1-(3-pyrazol-1-yl-phenyl)-ethyl]-acrylamide] | 3364 | 1.24 | – | –
NCC1(CC(=O)O)CCCCC1 [Gabapentin, gabapentin, reference compound] | – | – | – | 50 (100 mg/kg, i.v.) Δ % MPE
